Measurements from patent publication US9512075B2 (OKAYAMA UNIVERSITY, priority 2012, dated 2016).
≈ marks a conversion by molar mass, not a printed value. Where two headings read alike, the source gives them in different places.

How the values were obtained:
Type in all cases: cell-based
[1] = system: Clostridium difficile JCM1296 strain; assay: microbe, parasite or virus in culture; settings: Clostridioides difficile, JCM1296, read-out: MIC Clostridium difficile JCM1296
[2] = system: Staphylococcus aureus Smith strain; assay: MIC for Staphylococcus aureus Smith strain; settings: read-out: MIC Straphyrococcus aureus Smith
[3] = system: Escherichia coli BE1121 strain; assay: MIC for Escherichia coli BE1121 strain; settings: Escherichia coli, BE1121STRAIN; BE1121 strain; regular bouillon medium, 37° C. overnight, turbidity; read-out: MIC Escherichia coli BE1121
[4] = system: Escherichia coli K-12 strain; assay: MIC for Escherichia coli K-12 strain; settings: Escherichia coli, K12STRAIN; K-12 strain; regular bouillon medium, 37° C. overnight, turbidity; read-out: MIC Escherichia coli K12
[5] = system: Enterococcus faecalis NCTC12201 strain (vancomycin-resistant Enterococcus: VRE); assay: MIC for Enterococcus faecalis NCTC12201 strain (VRE); settings: read-out: MIC Enterococcus faecalis NCTC 12201 (VRE)
[6] = system: Staphylococcus aureus 209P strain; assay: MIC for Staphylococcus aureus 209P strain; settings: Staphylococcus aureus; 209P strain; regular bouillon medium, 37° C. overnight, turbidity; read-out: MIC Straphyrococcus aureus 209P
[7] = system: Staphylococcus aureus MRSA No. 17 (methicillin-resistant Staphylococcus aureus: MRSA); assay: MIC for Staphylococcus aureus MRSA No. 17; settings: read-out: MIC Straphyrococcus aureus MRSA No. 17 (MRSA)
[8] = system: Clostridium perfringens PB6K strain; assay: microbe, parasite or virus in culture; settings: Clostridium perfringens, PB6KSTRAIN, read-out: MIC Clostridium perfringens PB6K, PB6K strain; CD medium, 37° C. overnight, 10% CO2-containing anaerobic conditions
[9] = system: Enterococcus faecalis 5038 strain; assay: MIC for Enterococcus faecalis 5038 strain; settings: read-out: MIC Enterococcus faecalis 5038
[10] = Smith strain, regular bouillon medium, 37° C. overnight, turbidity
[11] = NCTC12201 strain (VRE), Heart Infusion Broth medium, 37° C. overnight, turbidity
[12] = MRSA No. 17, regular bouillon medium, 37° C. overnight, turbidity
[13] = 5038 strain, Heart Infusion Broth medium, 37° C. overnight, turbidity

Structure (SMILES) | MIC [1] [µg/mL] | MIC [2, 10] [µg/mL] | MIC [3] [µg/mL] | MIC [4] [µg/mL] | MIC [5, 11] [µg/mL] | MIC [6] [µg/mL] | MIC [7, 12] [µg/mL] | MIC [8] [µg/mL] | MIC [9, 13] [µg/mL] | MIC [2] [µg/mL] | MIC [5] [µg/mL] | MIC ([7]; MRSA) [µg/mL] | MIC ([9]; 5038STRAIN) [µg/mL]
CCCCCCCCCC(O)=C1C(=O)N(C(=O)Nc2ccccc2)c2ccc(F)cc21 [A044, N-(phenylaminocarbonyl)-3-decanoyl-5-fluoro-2-oxyindole] | < 0.125 | 0.25 (≈ 0.589 µM) | 256 (≈ 603 µM) | 256 (≈ 603 µM) | 0.5 (≈ 1.18 µM) | 256 (≈ 603 µM) | 256 (≈ 603 µM) | < 0.125 | 1 (≈ 2.36 µM) | – | – | – | –
CCCCCCCCCC(=O)NCC(=O)c1c(O)c2ccccc2oc1=O [B016, 3-decanoylaminoacetyl-4-hydroxycoumarin] | 8 (≈ 21.4 µM) | 256 (≈ 686 µM) | 256 (≈ 686 µM) | 256 (≈ 686 µM) | 256 (≈ 686 µM) | 256 (≈ 686 µM) | 256 (≈ 686 µM) | 16 (≈ 42.8 µM) | 256 (≈ 686 µM) | – | – | – | –
CCCCCCCCOCC(O)=C1C(=O)N(C(C)=O)c2ccccc21 [A057, N-acetyl-3-octyloxyacetyl-2-oxyindole] | 0.25 (≈ 0.724 µM) | 1 (≈ 2.89 µM) | 128 (≈ 371 µM) | 128 (≈ 371 µM) | 2 (≈ 5.79 µM) | 8 (≈ 23.2 µM) | 16 (≈ 46.3 µM) | 0.5 (≈ 1.45 µM) | 1 (≈ 2.89 µM) | – | – | – | –
CCCCCCCCCC(=O)N1C(=O)/C(=C(\O)COC)c2cc(F)ccc21 [A050, N-decanoyl-3-methoxyacetyl-5-fluoro-2-oxyindole] | 0.25 (≈ 0.662 µM) | 0.5 (≈ 1.32 µM) | 128 (≈ 339 µM) | 256 (≈ 678 µM) | 0.5 (≈ 1.32 µM) | 256 (≈ 678 µM) | 256 (≈ 678 µM) | 0.5 (≈ 1.32 µM) | 0.5 (≈ 1.32 µM) | – | – | – | –
CCCCCCCCCC(=O)N1C(=O)C(=C(O)c2ccccc2O)c2ccccc21 [A063, N-decanoyl-3-(2-hydroxybenzoyl)-2-oxyindole] | 16 (≈ 39.3 µM) | – | 128 (≈ 314 µM) | 128 (≈ 314 µM) | – | 256 (≈ 628 µM) | – | 256 (≈ 628 µM) | – | 256 (≈ 628 µM) | 256 (≈ 628 µM) | 256 (≈ 628 µM) | 256 (≈ 628 µM)
CCCCCCCCCC(=O)N1C(=O)/C(=C(\O)c2ccccc2)c2cc(F)ccc21 [A052, N-decanoyl-3-benzoyl-5-fluoro-2-oxyindole] | 0.5 (≈ 1.22 µM) | – | 128 (≈ 313 µM) | 256 (≈ 625 µM) | – | 64 (≈ 156 µM) | – | 0.5 (≈ 1.22 µM) | – | 0.5 (≈ 1.22 µM) | 0.5 (≈ 1.22 µM) | 64 (≈ 156 µM) | 0.25 (≈ 0.61 µM)
CCCCCCCCCCOCC(O)=C1C(=O)N(C(=O)Nc2ccccc2)c2ccc(Br)cc21 [A035, N-(phenylaminocarbonyl)-5-bromo-3-decyloxyacetyl-2-oxyindole] | 0.5 (≈ 0.944 µM) | 8 (≈ 15.1 µM) | 128 (≈ 242 µM) | 128 (≈ 242 µM) | 2 (≈ 3.78 µM) | 64 (≈ 121 µM) | 64 (≈ 121 µM) | 0.25 (≈ 0.472 µM) | 4 (≈ 7.55 µM) | – | – | – | –
CCCCCCCCCC(=O)c1c(O)c2cc(C)ccc2oc1=O [B012, 3-decanoyl-6-methyl-4-hydroxycoumarin] | 0.25 (≈ 0.757 µM) | 0.5 (≈ 1.51 µM) | 256 (≈ 775 µM) | 256 (≈ 775 µM) | 0.25 (≈ 0.757 µM) | 0.5 (≈ 1.51 µM) | 0.5 (≈ 1.51 µM) | 0.5 (≈ 1.51 µM) | 0.25 (≈ 0.757 µM) | – | – | – | –
CCCCCCCCCCOCC(O)=C1C(=O)N(C(=O)Nc2ccccc2)c2ccccc21 [A019, N-(phenylaminocarbonyl)-3-decyloxyacetyl-2-oxyindole] | 0.5 (≈ 1.11 µM) | 4 (≈ 8.88 µM) | 128 (≈ 284 µM) | 256 (≈ 568 µM) | 4 (≈ 8.88 µM) | 256 (≈ 568 µM) | 256 (≈ 568 µM) | 2 (≈ 4.44 µM) | 1 (≈ 2.22 µM) | – | – | – | –
CCCCCCCCCC(=O)N1C(=O)/C(=C(\O)COC)c2ccccc21 [A049, N-decanoyl-3-methoxyacetyl-2-oxyindole] | 0.5 (≈ 1.39 µM) | 1 (≈ 2.78 µM) | 128 (≈ 356 µM) | 256 (≈ 712 µM) | 0.5 (≈ 1.39 µM) | 256 (≈ 712 µM) | 256 (≈ 712 µM) | 0.5 (≈ 1.39 µM) | 0.5 (≈ 1.39 µM) | – | – | – | –
CCCCCCCCNC(=O)c1c(O)c2ccccc2oc1=O [B020, 3-(octylaminocarbonyl)-4-hydroxycoumarin] | 1 (≈ 3.15 µM) | 8 (≈ 25.2 µM) | 32 (≈ 101 µM) | 64 (≈ 202 µM) | 1 (≈ 3.15 µM) | 8 (≈ 25.2 µM) | 16 (≈ 50.4 µM) | 8 (≈ 25.2 µM) | 1 (≈ 3.15 µM) | – | – | – | –
